Assay results: US7453000B2, “Substituted oxazolobenzoisothiazole dioxide derivatives method for production and use thereof” (Sanofi-Aventis Deutschland GmbH, priority 2004, dated 2008)

What follows are compounds tested against T1, human PTP1B (Homo sapiens, UniProt P18031) (assay: Enzymatic test system for detecting inhibition of a phosphatase (recombinant hPTP1B; phosphopeptide dephosphorylation / p-nitrophenyl phosphate cleavage)). Conditions: inhibition of recombinant hPTP1B (1-299 aa, expressed in Sf9 cells); Table 2 does not say which substrate procedure (A phosphopeptide or B pNPP).
T1 construct: without the carboxy-terminal hydrophobic region (corresponding to 1-299 aa); made in house; host or cells: Sf9 insect cells (Spodoptera frugiperda), baculovirus (Bac-to-Bac, pFASTBAC)
T1 sequence (P18031 1-299): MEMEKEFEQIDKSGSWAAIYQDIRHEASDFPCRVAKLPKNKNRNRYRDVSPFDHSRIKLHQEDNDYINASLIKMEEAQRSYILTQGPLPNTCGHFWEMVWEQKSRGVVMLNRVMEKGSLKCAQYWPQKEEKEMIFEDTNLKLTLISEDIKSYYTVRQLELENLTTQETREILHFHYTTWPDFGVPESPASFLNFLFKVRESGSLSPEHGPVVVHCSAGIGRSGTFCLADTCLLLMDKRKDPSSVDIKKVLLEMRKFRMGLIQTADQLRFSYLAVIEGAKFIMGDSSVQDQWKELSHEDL
Type: biochemical
Protocol: The activity of the compounds was tested as follows:
Enzymatic test systems for detecting inhibition of a phosphatase
The compounds of the formula I were tested for their phosphatase-inhibiting effect in an in vitro assay. The enzyme preparation and the performance of the assay was carried out as follows.
Obtaining the Enzyme Preparation:
• Sf9 cells (=Spodoptera frugiperda cell type; obtainable from invitrogen) are cultured in Grace's supplemented medium (Gibco-BRL) with 10% heat-inactivated fetal calf serum (Gibco-BRL) in spinner flasks at 28° C. in accordance with the protocol of Summers and Smith (A Manual for Methods for Baculoviruns Vectors and Insect Culture Procedures [Bulletin No. 15555]. Texas A & M University, Texas Agricultural Experiment Station, College Station, Tex., 1987). • Construction of recombinant Baculovirus transfer vectors: cDNA coding for the regulatory and catalytic domains of human PTP1B, but without the carboxy-terminal hydrophobic region (corresponding to 1-299 aa) was obtained by polymerase chain reaction via primers with attached cloning sites and suitable cDNA templates (obtainable for example from invitrogen) and then cloned into baculovirus expression vectors (Amersham Pharmacia Biotech.). The recombinant baculoviruses were prepared with the aid of the Bac-to-Bac baculovirus expression system (obtainable from Gibco-BRL). The gene was cloned into the pFASTBAC donor plasmid (obtainable from Life Technologies). The resulting plasmid was transformed into competent DH10BAC Escherichia coli cells (obtainable from Life Technologies). After transposition and antibiotic selection, the recombinant plasmid DNA was isolated from selected E. coli colonies and then used for the transfection of Sf9 insect cells. The virus particle in the supernatant medium was amplified three times up to a viral stock volume of 500 ml. B) Production of Recombinant Protein: • Baculovirus infection of a 500 ml spinner culture of Sf9 cells was essentially carried out as described by Summers and Smith (see above). Sf9 cells at a density of 1-3×10^6 cells/ml were pelleted by centrifugation at 300 g for 5 min, the supernatant was removed, and the cells were resuspended in a density of 1×10^7 cells/ml in a suitable recombinant viral stock (MOI 10). After careful shaking at room temperature for 1.5 h, fresh medium was added in order to achieve a cell density of 1×10^6 cells/ml. The cells were then cultured in suspension at 28° C. for suitable periods after postinfection. C) Cellular Fractionation and Complete Cell Extracts of Infected Sf9 Cells: • After the postinfection, aliquots were subjected to an analysis of protein expression by SDS-PAGE and Western blot analysis. The cellular fractionation was carried out as described (Cromlish, W. and Kennedy, B. Biochem. Pharmacol. 52: 1777-1785, 1996). Complete cell extracts were obtained from 1 ml aliquots of the infected Sf9 cells after certain times postinfection. The pelleted cells (300×g, 5 min) were washed once in phosphate-buffered saline (4° C.), resuspended in 50 μl of water and disrupted by repeated freezing/thawing. Protein concentrations were determined with the aid of the Bradford method and bovine serum albumin as standard. Assay Procedure: A) Dephosphorylation of a Phosphopeptide: • This assay is based on the release of phosphate from a consensus substrate peptide which is detected in the nanomolar concentration range by the malachite green/ammonium molybdate method (Lanzefta, P. A., Alvarez, L. J., Reinach, P. S., Candia, O. A. Anal Biochem. 100: 95-97, 1979) adapted for the microtiter plate format. The dodecatrisphosphopeptide TRDIYETDYYRK (Biotrend, Cologne) corresponds to amino acids 1142-1153 of the catalytic domain of the insulin receptor and is (auto)phosphorylated on tyrosine residues 1146, 1150 and 1151. […]
For `N#Cc1cccc(-c2cnc(Nc3ccc4c(c3)CS(=O)(=O)N4)o2)c1` [Example 1], the IC50 was 7.3 µM. In the case of `O=S1(=O)Cc2cc(Nc3ncc(-c4cccc(Br)c4)o3)ccc2N1` [Example 2], the IC50 is reported as 12.6 µM. For `O=S1(=O)Cc2cc(Nc3ncc(-c4ccc(C(F)(F)F)cc4)o3)ccc2N1` [Example 3], the IC50 was 15.7 µM. In the case of `CC(C)(C)c1cc(-c2cnc(Nc3ccc4c(c3)CS(=O)(=O)N4)o2)cc(C(C)(C)C)c1O` [Example 4], the IC50 is reported as 6.12 µM. `O=S1(=O)Cc2cc(Nc3ncc(-c4ccc(-c5ccc(Cl)cc5)cc4)o3)ccc2N1` [Example 5] was tested, and the IC50 was 2.16 µM. In the case of `O=S1(=O)Cc2cc(Nc3ncc(-c4ccc(Br)s4)o3)ccc2N1` [Example 6], the IC50 is reported as 9.44 µM. `O=C(O)c1cc(-c2cnc(Nc3ccc4c(c3)CS(=O)(=O)N4)o2)ccc1O` [Example 7] gave an IC50 of 162 µM. `O=C(O)COc1ccc(-c2cnc(Nc3ccc4c(c3)CS(=O)(=O)N4)o2)cc1` [Example 8] gave an IC50 of 290 µM.
